# US12005128B1, “Near infrared small molecule probes for the detection of cellular senescence” (UNM Rainforest Innovations, priority 2019, dated 2024)
# What was measured:
# HeLa tumors [1] = assay: HeLa xenografts imaging of senescence by NIR-BG1 and NIR-BG2; format: in vivo, mice; settings: for fluorescence of senescent tumor relative to normal tumor: CPT vs saline, quantification of optical imaging; for fluorescence of senescent tumor relative to normal tumor / fluorescence of CPT treated tumor compared to saline treated tumor: tail vein injection
# Procedure: HeLa xenografts imaging was successfully performed to further evaluate the capability of NIR-BG1 and NIR-BG2 to visualize senescence in vivo. HeLa tumor-bearing mice were treated with CPT or saline to induce the senescent cancer cells. […] Ex vivo imaging and quantitative analysis of the tumors and organs further confirmed the in vivo imaging results.
# CT26.WT cells [2] = assay: Fluorescence microscope imaging of wild type cells by NIR-BG1 and NIR-BG2; format: cell-based, mouse
# Text: (§1) In order to further verify that our probe can specifically detect β-gal in cells, CT26.CL25 cells were imaged with our probes and compared with the CT26.WT cells.
# CT26.CL25 cells [3] = assay: Fluorescence microscope imaging of LacZ(+) cells by NIR-BG1 and NIR-BG2; format: cell-based, mouse
# Text: as §1
# HeLa cells [4] = assay: Imaging of β-gal in senescent and normal HeLa cells by NIR-BG1 and NIR-BG2; format: cell-based, human; settings: for NIR signal in normal cells: normal HeLa cells
# MCF7 cells [5] = assay: Flow cytometry detection of senescence in drug or radiation treated cancer cells; format: cell-based, human
# Procedure: FIG. 18 is a graph showing Flow cytometry of MCF7 cells without treatment, or with CPT, CPT/CHX, or radiation treatment. Probe concentration, 10 μM. λex=640 nm; PerCP bandpass filter at 675/25 nm. ***P<0.001.
# (§2) With the confidence of our probe being able to detect β-gal in live cells, we moved further to evaluate whether it could differentiate senescent cells and normal cells. Human cervical cancer cells (HeLa) and metastatic breast cancer cells (MCF7), were used in all four groups of cells evaluated. Senescence in HeLa and MCF7 cells were induced using camptothecin (CPT), an inhibitor of DNA topoisomerase I that could cause lethal DNA strand breaks^59. […] Radiation therapy is another effective method for cancer treatment in clinic; it can also induce cell cycle arrest leading to senescence. All four groups of cells, with no drug treatment, with CPT treatment, with both CPT and CHX treatment, or with 10 Gy radiation treatment, were then incubated with our NIR-BG probe, followed by flow cytometry (FIGS. 16-19).
# HeLa cells [6] = assay: as above; format: cell-based, human
# Procedure: FIG. 16 is a graph showing detection of senescence in human cancer cells via flow cytometry of HeLa cells without treatment, or with CPT, CPT/CHX, or radiation treatment. Probe concentration, 10 μM. λex=640 nm; PerCP bandpass filter at 675/25 nm. ***P<0.001.
# as §2
# CT26.WT cells [7] = assay: Confocal fluorescence microscopy, wild type control cells; format: cell-based, mouse; settings: after 4-hour incubation
# Procedure: (§6) In order to see whether our NIR-BG probe can be used for β-gal detection in live cells, we chose an engineered cell line that stably express LacZ(+), the gene that encodes β-gal. CT26.CL25, a mouse colon fibroblast carcinoma cell line that express β-gal, was therefore used in our initial live cell experiments. […] Cell samples after incubating with our NIR-BG probe were analyzed using flow cytometry (FIG. 13-15) and confocal microscopy (not shown).
# [8] = tested on: β-gal in LacZ(+) cells (CT26.CL25); assay: Flow cytometry detection of β-gal in LacZ(+) live cells; format: cell-based, mouse; settings: CT26.CL25, 1 hour and 4 hours, probe 10 μM, λex=640 nm
# Procedure: FIG. 13 is a graph showing flow cytometry detection of β-gal by the NIR-BG probe in LacZ(+) cells (CT26.CL25) probe (10 μM), λex=640 nm.
# (§3) FIG. 15 depicts the quantification of the mean fluorescence intensity in FIGS. 13 and 14.
# CT26.WT cells [9] = assay: Flow cytometry, negative control cells; format: cell-based, mouse; settings: same treatment, probe 10 μM, λex=640 nm
# Procedure: FIG. 14 is a graph showing flow cytometry detection of negative control CT26.WTcells probe (10 μM), λex=640 nm.
# as §3
# CT26.WT cells [10] = tested on: CT26.WT cells
# Procedure: (§7) In order to see whether our NIR-BG probe can be used for β-gal detection in live cells, we chose an engineered cell line that stably express LacZ(+), the gene that encodes β-gal. […] Cell samples after incubating with our NIR-BG probe were analyzed using flow cytometry (FIG. 13-15) and confocal microscopy (not shown).
# CT26.CL25 cells [11] = tested on: CT26.CL25 cells
# Procedure: as §7
# [12] = tested on: CT26.CL25 and CT26.WT tumors; assay: Fluorescence imaging of CT26 tumors with and without active β-gal; format: in vivo, mice
# Text: In a preliminary experiment, we used the genetically modified mice colon cancer cell line CT26 to determine whether NIR-BG could differentiate tumors with and without active β-gal (Not shown). […] We also confirmed β-gal expression in resected whole tumor and tumor slides (Not shown).
# HeLa tumors [13] = assay: Fluorescence imaging of chemotherapy-induced senescence in HeLa xenografts (NIR-BG); format: in vivo, mice; settings: 675 nm excitation and 720 nm emission
# Procedure: We then moved on to HeLa xenografted mice models to see whether probe NIR-BG could visualize chemotherapy-induced senescence in tumors. (FIGS. 26-28) Tumor-bearing mice were first systemically treated with CPT or saline before the probe NIR-BG was injected. […] We were delighted to find that NIR-BG behaved similarly in the drug-treated mice (with drug-induction triggered expression of β-gal) to the CT26 tumor models (with genetically expressed β-gal). […] While not depicted, resected intact whole tumor staining, histochemical staining with X-gal and immunofluorescent staining of tumor tissue with antibodies against β-gal further confirmed the probe activation in senescent tumors.
# β-galactosidase = tested on: β-galactosidase
# Text: FIG. 25A is absorbance and emission spectra of the unactivated NIR-BG probe by β-galactosidase.
# FIG. 25B is absorbance and emission spectra of the activated NIR-BG probe by β-galactosidase.
# CT26.CL25 cells [14] = assay: Confocal fluorescence microscopy of LacZ(+) live cells; format: cell-based, mouse
# Procedure: as §6
# MCF7 cells [15] = assay: Confocal microscopy of normal and senescent cells; format: cell-based, human
# Text: (§4) Since SABG is localized in the lysosome, we then performed confocal microscopy of the normal and senescent HeLa or MCF7 cells (Not shown). […] X-gal staining also verified the existence of SABG in cells after chemotherapy and radiation therapy.
# HeLa cells [16] = assay: Confocal microscopy of normal and senescent cells; format: cell-based, human
# Text: as §4
# β-gal = settings: cited from earlier work
# MCF7 cells [17] = assay: Western blot of cell lysates for β-gal, p16 and p21; format: cell-based, human
# Text: FIG. 22 is a western blot of β-gal, p16, and p21 expression in MCF7 cells without drug treatment, with CPT or radiation treatment. ***P<0.001, **P<0.005.
# FIG. 23 is a quantification of FIG. 22.
# (§5) Cell cycle inhibitors p21 and p16 are often expressed by senescent cells^1. Therefore, we examined the cell lysates of all cell samples from the imaging studies using Western blot (FIGS. 20-24). […] In addition to HeLa cells, MCF7 cells also expressed higher levels of p16 and p21 upon CPT treatment (FIGS. 22, 23). The Western blot results confirmed the senescent state of these drug or radiation treated cells used in the imaging experiments.
# HeLa cells [18] = assay: as above; format: cell-based, human
# Text: FIG. 20 is a western blot of cell lysates of β-gal, p16, and p21 expression in HeLa cells without drug treatment, with CPT or radiation treatment. ***P<0.001, **P<0.005.
# FIG. 21 is a quantification of FIG. 20.
# as §5
# HeLa tumors [19] = assay: HeLa tumor growth with and without CPT treatment; format: in vivo; settings: HeLa xenografted mice, systemic treatment
# Text: (The tumors of control group reached the maximum volume limitation and were imaged and euthanized.)
molecule,measurement,setting,value
CCC[N+]1=C(/C=C/C2=C3Oc4cc(OCc5ccc(O[C@@H]6O[C@H](CO)[C@H](O)[C@H](O)[C@H]6O)cc5)c(C(F)F)cc4C=C3CCC2)C(C)(C)c2ccccc21 [NIR-BG2],signal and accumulation in the tumors compared with NIR-BG1,HeLa tumors [1],much higher signal and extended accumulation
same,fluorescence of senescent tumor relative to normal tumor,HeLa tumors [1],3.06 times
same,fluorescence of CPT treated tumor compared to saline treated tumor,HeLa tumors [1],significantly increased fluorescence
same,signal in the NIR channel,CT26.WT cells [2],background signal
same,NIR fluorescence,CT26.CL25 cells [3],high NIR fluorescence
same,NIR signal compared with NIR-BG1,CT26.CL25 cells [3],significantly higher
same,NIR signal in normal cells,HeLa cells [4],no significant signal
same,NIR signal compared with NIR-BG1,HeLa cells [4]; senescent HeLa cells,significantly higher
same,NIR signal in senescent cells,HeLa cells [4]; senescent HeLa cells,showed NIR signals
"C[C@@H]1C[C@@H]([C@H](O)CC2CC(=O)NC(=O)C2)C(=O)[C@@H](C)C1 [CHX, cycloheximide, reference compound]",NIR-BG fluorescence in cells treated with both CPT and CHX compared to the CPT-treated group,MCF7 cells [5]; MCF7,significantly reduced
same,NIR-BG fluorescence in cells treated with both CPT and CHX compared to the CPT-treated group,HeLa cells [6],significantly reduced
CCC[N+]1=C(/C=C/C2=C3Oc4cc(O[C@@H]5O[C@H](CO)[C@H](O)[C@H](O)[C@H]5O)ccc4C=C3CCC2)C(C)(C)c2ccccc21 [NIR-BG],confocal fluorescence in the NIR channel,CT26.WT cells [7],no fluorescence
same,flow cytometry fluorescence of CPT or radiation treated cells compared to untreated control cells,"MCF7 cells [5]; MCF7, probe 10 μM, λex=640 nm",significantly higher fluorescence
same,flow cytometry fluorescence,[8],obvious fluorescence
same,flow cytometry fluorescence,CT26.WT cells [9],only background signal
same,toxicity in cell culture (cell viability),CT26.WT cells [10],did not appear toxic
same,toxicity in cell culture (cell viability),CT26.CL25 cells [11],did not appear toxic
same,flow cytometry fluorescence of CPT or radiation treated cells compared to untreated control cells,"HeLa cells [6]; probe 10 μM, λex=640 nm",significantly higher fluorescence
same,"difference in tumor signal, CT26.CL25 versus CT26.WT tumors",[12]; 640 nm excitation and 680 nm emission,minimal
same,"tumor signal, LacZ(+) CT26.CL25 versus CT26.WT tumors","[12]; 1 h after probe injection, 675 nm excitation and 720 nm emission",significantly higher signals
same,"tumor signal of activated form, CPT treatment versus saline",HeLa tumors [13],significantly higher signal
same,maximal absorption,β-galactosidase; activated probe,680 nm
same,maximal emission,β-galactosidase; activated probe,710 nm
same,absorption peak,β-galactosidase; unactivated probe,around 640 nm
same,emission peak,β-galactosidase; unactivated probe,around 660 nm
same,colocalization of NIR signal with β-gal expression,CT26.CL25 cells [14]; CT26.CL25,highly colocalized
same,confocal fluorescence signal,"CT26.CL25 cells [14]; CT26.CL25, 1-hour probe treatment",obvious
same,colocalization of probe signal with lysosome and β-gal in senescent cells,MCF7 cells [15],well colocalized
same,confocal fluorescence in CPT or radiation treated cells versus control cells without treatment,MCF7 cells [15],strikingly higher
same,colocalization of probe signal with lysosome and β-gal in senescent cells,HeLa cells [16],well colocalized
same,confocal fluorescence in CPT or radiation treated cells versus control cells without treatment,HeLa cells [16],strikingly higher
CCC[N+]1=C(/C=C/C2=C3Oc4cc(OCc5ccc(O[C@@H]6O[C@H](CO)[C@H](O)[C@H](O)[C@H]6O)cc5)ccc4C=C3CCC2)C(C)(C)c2ccccc21 [NIR-BG1],fluorescence of senescent tumor relative to normal tumor,HeLa tumors [1],2.84 times
same,fluorescence of CPT treated tumor compared to saline treated tumor,HeLa tumors [1],significantly increased fluorescence
same,signal in the NIR channel,CT26.WT cells [2],background signal
same,NIR fluorescence,CT26.CL25 cells [3],high NIR fluorescence
same,NIR signal in normal cells,HeLa cells [4],no significant signal
same,NIR signal in senescent cells,HeLa cells [4]; senescent HeLa cells,showed NIR signals
hydroxymethyl rhodol (HMR) β-galactoside,fluorescence turn-on ratio,β-gal,"1,400 fold"
"CC[C@@]1(O)C(=O)OCc2c1cc1n(c2=O)Cc2cc3ccccc3nc2-1 [CPT, camptothecin]",p16 and p21 expression upon treatment,MCF7 cells [17],higher levels
same,β-gal levels compared with the control cells,MCF7 cells [17],elevated
same,p16 and p21 expression compared with normal cells,HeLa cells [18],both increased
same,β-gal levels compared with the control cells,HeLa cells [18],elevated
same,tumor growth compared to saline only,HeLa tumors [19],significantly inhibited
